Measured values: a melting point compilation (Tetko et al.; mined from patent text by program, amines drawn as free bases though some values may be those of a salt)

| Structure (SMILES) | melting point |
| --- | --- |
| FC(F)C(F)(F)Oc1cccc(Nc2nccc(-c3ccsc3)n2)c1 | 110 to 111 °C |
| Cn1ncc(N(CCCCl)Cc2ccccc2)c(Cl)c1=O | 92 to 93 °C |
| CS(=O)(=O)Nc1cc(N2C(=O)C3=C(CCCC3)C2=O)c(F)cc1C#N | 113 °C |
| COc1cccc(C2(CCC(=O)O)NC(=O)NC2=O)c1 (stereo unspecified) | 138 °C |
| COC(=O)Cc1ccc[nH]c1=O | 183 to 184 °C |
| COc1cc(CO)cc(OC)c1Br | 100 to 102 °C |
| O=C(NC/C=C\COc1cc(CN2CCCCC2)ccn1)NC1CCC1 | 130 to 132 °C |
| CC(C)(C)c1ccc([C@@H]2C[C@H]3C=C(c4c[nH]c(-c5ccc(F)c(F)c5)c4-c4ccncc4)CCN3C2)cc1 | 218 to 220 °C |
| N#CC=Cc1ccc(CBr)cc1 | 105 to 107 °C |
| CC(C)OC(=O)C(C)Oc1ncn(-c2ccc(Cl)cc2Cl)n1 (stereo unspecified) | 55 to 57 °C |
| CN(C(=O)C(F)(F)F)C(C(=O)O)c1ccc(Cl)cc1 (stereo unspecified) | 117 to 118 °C |
| CCNC(=O)C(=O)[C@H](Cc1ccccc1)NC(=O)[C@H](CC(C)C)NC(=O)O[C@H]1CCOC1 | 159 to 161 °C |
| Nc1nc(-c2cc(Cl)ccc2Cl)nc(N2CCS(=O)(=O)CC2)n1 | > 275 °C |
| CC1(C)Cc2cc(Br)cc(O)c2O1 | 70 °C |
| CN1C(=O)NC(N)C1=O (stereo unspecified) | 122 to 125 °C |
| CN(C)C=Nc1ncc2cc(-c3c(Cl)cccc3Cl)c(N=CN(C)C)nc2n1 | 269 to 272 °C |

| Structure (SMILES) | melting point |
| --- | --- |
| CCCc1c(OCCCSc2nnc(SCC(=O)N(C)O)s2)ccc(C(C)=O)c1O | 97 to 99 °C |
| ClC1=Nc2ccccc2Sc2ncccc21 | 134 to 135 °C |
| CC12CC(=O)C3C(CCC4CC(O)CCC43C)C1CCC2C(=O)COCCN1CCOCC1 (stereo unspecified) | 112 to 113 °C |
| O=C(O)CS(=O)(=O)c1cccc(C(=O)C2CCC3(CCNCC3)CC2)c1 | 134 to 138 °C |
| CN1CCN(C)C1=Nc1ccccc1CN1CCOCC1 | 56 to 58 °C |
| OCC1CC(O)C(n2cnc3cc(Cl)c(Cl)cc32)C1 (stereo unspecified) | 244 to 245 °C |
| CC(=O)c1ccc2c(c1)CCCN2C(=O)OC(C)(C)C | 80 to 82 °C |
| CC(=O)SCC(CC(C)C)C(=O)NCC(=O)O (stereo unspecified) | 120 to 121 °C |
| Cc1oc2nc3c(c(N)c2c1C)C(=O)CCC3 | 190 to 198 °C |
| CC(=O)OC1CSC(Oc2cccc(C(C)=O)c2)C(OC(C)=O)C1OC(C)=O (stereo unspecified) | 150 to 153 °C |
| CC12CCC(C1)C1(C)Oc3ccc(C(=O)c4ccc(C=CC(=O)O)cc4)cc3C21C (stereo unspecified) | 242 to 243 °C |
| CC(C)(C)OC(=O)N[C@@H](CC1CCCCC1)[C@@H](O)CCO | 77 to 79 °C |
| Cc1cc(C)c2c(=O)cc(C(=O)O)[nH]c2c1 | 285 to 287 °C |
| CCOC(=O)C(=CNc1nnc(C)s1)C(=O)c1cc(F)c(Cl)nc1Cl | 142 to 152 °C |
| CC(=O)OC1C(C)OC(n2c(Br)nc3cc(Cl)c(Cl)cc32)C1OC(C)=O (stereo unspecified) | 145 to 148 °C |
| O=C(O)Cn1nc(Br)nc1Br | 147 to 152 °C |

Continued, values first:

| melting point | Structure (SMILES) |
| --- | --- |
| 152 to 154 °C | CC(=Cc1ccccc1)COc1cc(C)c(NC=O)c(C)c1C |
| 200 °C | COc1ccc(C(=O)c2cccc(F)c2)cc1C(=O)O |
| 48 to 50 °C | COC(=O)/C=C/c1cc(-c2ccc(S(C)(=O)=O)cc2)n(CC2CCCCC2)n1 |
| 93 to 94 °C | Cc1cc(Nc2nccc(-c3sc(CO)nc3C)n2)ccc1N1CCOCC1 |
| 119 to 120 °C | O=C(c1ccccc1)C(O)C1OC(n2ccc(=O)[nH]c2=O)C(O)(C(=O)c2ccccc2)C1(O)C(=O)c1ccccc1 (stereo unspecified) |
| 236 to 238 °C | Cc1cc(C=Cc2ccccc2O)on1 |
| 102 °C | CO/N=C/c1ccc2c(c1Cn1ccnc1)OCO2 |
| 200 °C | COc1ccc(S(=O)(=O)N(CC(N)=O)c2ccc(Cl)cc2Cc2cc(Cl)ccc2Cl)cc1OC |
| 187 to 190 °C | COc1ccc(/C=C/c2nc3ccccc3c(=O)o2)cc1OC(C)=O |
| 227 to 229 °C | O=C(Nc1ccccc1)c1cc(Oc2ccc3c(c2)CCN3C(=O)Nc2cccc(C(F)(F)F)c2)ncn1 |
| 116 °C | CCCN(CCCCc1c[nH]c2ccc(F)cc12)C1COc2c(C(N)=O)ccc(F)c2C1 (stereo unspecified) |
| 289 °C | COc1ccc(-c2[nH]nc3c2C(=O)c2c(NC(=O)C4CC4)cccc2-3)cc1 |
| 110 to 114 °C | OCc1cccc(Nc2nc(Oc3ccccc3)nc(Oc3ccc(Cl)cc3)n2)c1 |
| 159 to 160 °C | CCCC(=O)N(CCC)C1Cc2ccc(-c3ccc(=O)[nH]n3)cc2C1 (single isomer, unassigned; (+)) |
| 106 to 107 °C | CCOC(=O)c1cc(NCc2c(C)cccc2CC)c2nc(COC)n(C)c2c1 |
| 272 °C | O=c1oc2c(c(O)c1-c1ccc(F)cc1)CCCC2 |
| 187 to 190 °C | CCOc1nc2c(N)nc3cccnc3c2n1[C@@H](C)c1ccccc1 |
| 122 to 124 °C | COC(=O)c1cccc(Cc2ccc3[nH]c(-c4ccc5c(c4)OCO5)nc3c2)c1 |
| 88 °C | CCc1cc2c(NCCc3ccccc3)ccnc2s1 |
| 257 to 262 °C | NNCc1ccccc1S(=O)(=O)O |

| melting point | Structure (SMILES) |
| --- | --- |
| 155 to 158 °C | COc1cc(C(O)c2ccccc2S(=O)(=O)Nc2ccccc2C)cc2c1OCO2 (stereo unspecified) |
| 244 to 245 °C | CC(C)(C)C(NC(=O)c1cccc(Br)c1)Nc1c(Nc2cccnc2)c(=O)c1=O (stereo unspecified) |
| 235 to 236 °C | O=C(NCCc1cccc(-c2nc(=O)c3ccccc3s2)n1)Nc1ccccc1 |
| 93 °C | COC(=O)CCCc1cc2cc(Cl)ccc2n1S(=O)(=O)c1ccc(F)c([N+](=O)[O-])c1 |
| 120 to 122 °C | CN1CC(CCl)C(c2ccccc2)(c2ccccc2)C1=O (stereo unspecified) |
| 188 to 193 °C | Cc1cc(CN(C(=O)Nc2ccc(C(=O)O)cc2)c2ccc3c(c2)C(C)(C)CCC3(C)C)no1 |
| 191 to 192 °C | N#CCCNC(=O)c1cccc(-c2cccc3nn(Cc4ccc(F)c(F)c4)cc23)c1 |
| 121 to 122 °C | CCOP(=O)(CCc1cn(-c2ccccc2)nc1O)OCC |
| 135 to 138 °C | C[C@H]1C[C@@](O)(c2cccc(S(=O)(=O)c3cc4c(cc3F)N(C)C(=O)CC4)c2)CCO1 |
| 106 to 108 °C | CC(C)(C)OC(=O)N(CCOc1cccc2[nH]cc(Cl)c12)Cc1ccccc1 |
| 299 to 301 °C | CCCCc1nc2cc(C(=O)O)cc(C(=O)O)c2n1Cc1ccccc1Cl |
| 244 to 245 °C | COc1ccc(C#Cc2ccc(C(=O)O)s2)cc1C12CC3CC(CC(C3)C1)C2 |
| 235 to 236 °C | CC(=O)N1CCN(c2cc3c(c(NCc4ccccc4)c2F)c(=O)c(C(=O)O)cn3C2CC2)CC1C (stereo unspecified) |
| 166 to 169 °C | O=C1C=C(O)CC(c2ccccc2)N1 (stereo unspecified) |
| 136 to 138 °C | CC(=O)Nc1c(C(=O)c2ccccc2)[nH]c2cc(C)ccc12 |
| 191 °C | CS(=O)(=O)Nc1cccc(-c2cccc(-c3nc(-c4ccc(C(F)(F)F)cc4)cc(C(F)(F)F)n3)c2)c1 |
| 158 °C | CCOC(=O)c1c(CC(=O)O)n(-c2ccc(OC(C)C)cc2)c2ccc(Oc3ccc(C(F)(F)F)cc3)cc12 |
| 180 to 184 °C | CC1=NN(c2ccc(Cl)cc2)C(c2ccc(N)c(C)c2)C1 (stereo unspecified) |
| 107 to 108 °C | Cc1oc(-c2ccccc2)nc1COc1ccc(CON=C(CC(=O)O)c2ccccc2)cc1 |
